Test results as given in patent publication US20100099730A1, “ANNELLATED PYRROLE COMPOUNDS FOR CANCER MANAGEMENT” (MERCKLE GMBH, priority 2006, published 2010).

How the values were obtained:
HCA-7 cells [1] = assay: Cell morphology: phase-contrast and Hoechst 33342 fluorescence microscopy; type: cell-based, human; settings: licofelone 150 μM
Protocol: Morphological changes in the nuclear chromatin of cells undergoing apoptosis were detected by staining with the DNA-binding fluorochrome bis-benzimide stain. Briefly, HCA-7 were seeded in a flat-bottomed 96-well plate at the density of 2×10^4 cells/well and grown for 24 hours in complete medium. Cells where then cultured in the presence or absence of licofelone 150 μM at the indicated times; at the end of incubation, Hoechst 33342 (1 μg/ml) was added to each well for at least 20 min. at 37° C. HCA-7 cells were then washed with phosphate-buffered saline (PBS), fixed in 4% formaldehyde and observed under a fluorescence microscope.

PARP = assay: Western blot of PARP cleavage in HCA-7 cells; type: cell-based, human; settings: licofelone 150 μM, almost complete at 24 hours
Protocol: (§1) For Western blot analysis, cells were seeded in a 25 cm^2 flask at the density of 1.5×10^6 and grown in complete medium for 24 hours. At the end of incubation cells were scraped from flasks and lysed in a buffer containing 10 mM Tris, 1% SDS, 1 mM Na orthovanadate and a protease inhibitors cocktail. Samples containing 50 μg of protein were subjected to gel electrophoresis in 10% polyacrylamide gels in the presence of SDS. The proteins were then transferred electrophoretically to a Hybond-C nitrocellulose membrane at 300 V for 1 h at 4° C. The membrane was subsequently immersed in 0.5% Ponceau S in 1% acetic acid to stain the proteins and to confirm that equal amounts of protein were loaded in each lane and transferred efficiently. After incubation overnight in a blocking solution containing 5% bovine skim milk powder in 10 mM phosphate buffered saline (PBS, pH 7.4), the nitrocellulose membrane was incubated for 1 h with primary antibodies: anti COX-1, anti COX-2 and anti 5-LOX were used in HCA-7, Caco-2 and LS174T at a dilution of 1:500; anti Caspase-3 and anti PARP-1 were used in HCA-7 at the dilution of 1:250. The membrane was then washed with PBS buffer to remove the excess unbound antibodies and incubated for 1 h with HRP-conjugated secondary antibody, at a dilution of 1:1000. Detection was performed by using the ECL procedure developed by Amersham. […]

HCA-7 cells [2] = assay: MTT reduction assay, HCA-7 survival/proliferation; type: cell-based, human
Protocol: LS174T and CACO-2 were a generous gift of Prof. F. Dall'Olio (Dept. of Experimental Pathology, University of Bologna, Italy); HCA-7 cells were purchased from European Collection of Cell Cultures. These lines were cultured in Dulbecco's modified Eagle's Medium with 4.5 g/L glucose (DMEM), supplemented with 10% (v/v) heat-inactivated FBS, 2 mM L-glutamine, 100 U/ml penicillin and 100 μg/ml streptomycin. Cells were grown in monolayers, incubated at 37° C. in a humidified atmosphere of 95% air and 5% CO2 and routinely passaged using trypsin-EDTA 0.025%. For treatment with licofelone ([…] GmbH, Ulm, Germany), exponentially growing cells were trypsinized, seeded in regular medium (2×10^4 cells/well in 96-well plates; 1.2×10^5 cells/well in 24-well plates; 6×10^5 cells/well in 6-well plates; 1.5×10^6 cells in 25 cm^2 flasks) and incubated for 24 h. The medium was then replaced either with control medium or with medium containing 100, 125 or 150 μM licofelone. This drug was dissolved in dimethyl sulfoxide (DMSO) and diluted into the medium to obtain the required final concentration before each experiment. Fresh medium, alone or supplemented with licofelone, was completely replaced every 48 hours. To control for an effect of DMSO, control samples were treated in parallel with an equivalent concentration of this solvent. The effect of licofelone on HCA-7 survival/proliferation was determined colourimetrically using the MTT assay. MTT is a yellow-coloured tetrazolium salt that is taken up and cleaved only by metabolically active cells, which reduce it to a coloured, water-insoluble formazan salt. The solubilized formazan product can be quantified via absorbance at 570 nm measured using a 96-well-format spectrophotometer and the absorbance correlates directly with cell number. 2×10^4 cells/well were plated in a 100 μl volume in 96-well plates and grown for 24 h in DMEM supplemented with 10% FBS. Complete medium containing the indicated amount of licofelone, alone or in association with exogenous PGE2 and/or LTB4), was then replaced to each well. At the indicated times, 10 μl of MTT (5 mg/ml) was added and cells were incubated at 37° C. for 4 hours. The tetrazolium crystals were solubilized by the addition of 10% SDS in 0.01 N HCl. After overnight incubation at 37° C., the absorbance was measured at 570 nm using a 96-well spectrophotometric microplate reader. Survival/proliferation rate was calculated as follows (A570 treatment/A570 control×100). All determinations were carried out in triplicate.

HCA-7 cells [3] = assay: Cell-cycle distribution by flow cytometry (propidium iodide), sub-G1 cells; type: cell-based, human; settings: 0-150 μM, after 48 hours of treatment
Protocol: For treatment with licofelone ([…] GmbH, Ulm, Germany), exponentially growing cells were trypsinized, seeded in regular medium (2×10^4 cells/well in 96-well plates; 1.2×10^5 cells/well in 24-well plates; 6×10^5 cells/well in 6-well plates; 1.5×10^6 cells in 25 cm^2 flasks) and incubated for 24 h. The medium was then replaced either with control medium or with medium containing 100, 125 or 150 μM licofelone. This drug was dissolved in dimethyl sulfoxide (DMSO) and diluted into the medium to obtain the required final concentration before each experiment. Fresh medium, alone or supplemented with licofelone, was completely replaced every 48 hours. To control for an effect of DMSO, control samples were treated in parallel with an equivalent concentration of this solvent. The cell-cycle distribution for control and drug-treated cells was determined after 24 and 48 hours of treatment. Cells were seeded at the density of 6×10^5 cells/well onto 6-well plates and allowed to adhere for 24 h. Cells were then incubated with licofelone for 24 and 48 hours and then harvested by trypsinization. […] Subsequently, DNA content was measured using a flow cytometer and the cell-cycle distribution was calculated using the Phoenix Multicycle for Windows cell-cycle analysis software. A minimum of 10'000 events were measured for each sample.

[4] = Plasma ML3000 level after immediate release dosage form; type: in vivo; settings: for 8 hours
[5] = test system: PGE2 production by HCA-7 cells; assay: PGE2 level in HCA-7 culture medium, enzyme immunoassay; type: cell-based, human; settings: all doses tested (100-150 μM), 24 hours
Protocol: (§2) For treatment with licofelone ([…] GmbH, Ulm, Germany), exponentially growing cells were trypsinized, seeded in regular medium (2×10^4 cells/well in 96-well plates; 1.2×10^5 cells/well in 24-well plates; 6×10^5 cells/well in 6-well plates; 1.5×10^6 cells in 25 cm^2 flasks) and incubated for 24 h. The medium was then replaced either with control medium or with medium containing 100, 125 or 150 μM licofelone. This drug was dissolved in dimethyl sulfoxide (DMSO) and diluted into the medium to obtain the required final concentration before each experiment. Fresh medium, alone or supplemented with licofelone, was completely replaced every 48 hours. To control for an effect of DMSO, control samples were treated in parallel with an equivalent concentration of this solvent. For determination of PGE2 and LTB4 production, HCA-7 were seeded in a 24-well plates at the density of 1.2×10^5 cells/well and grown in complete medium for 24 hours. Cells were then serum-starved overnight before being exposed to increasing doses of licofelone (100-150 μM) in serum-free medium for additional 24 hours. The harvested medium was centrifuged at 500×g for 5 min (4° C.) to remove floating cells and the supernatant was collected and assayed following customer instructions. The levels of PGE2 and LTB4 were measured by enzyme immunoassay. Results are expressed as picograms/ml of medium. […]

caspase-3 = assay: Western blot of caspase-3 cleavage in HCA-7 cells; type: cell-based, human; settings: licofelone 150 μM, 0-24 hours, maximum after 24 hours
Protocol: as §1

[6] = test system: LTB4 production by HCA-7 cells; assay: LTB4 level in HCA-7 culture medium, enzyme immunoassay; type: cell-based, human; settings: 150 μM, 24 hours, serum-free medium
Protocol: as §2

Q: What does the source list for `CC1(C)Cc2c(-c3ccccc3)c(-c3ccc(Cl)cc3)c(CC(=O)O)n2C1` [licofelone, [2,2-dimethyl-6-(4-chlorophenyl)-7-phenyl-2,3-dihydro-1H-pyrrolizine-5 yl]-acetic acid]?
A: appearance of membrane blebbing after administration of the drug (HCA-7 cells [1]): 10 to 12 h; morphological changes of nuclei after drug addition (HCA-7 cells [1]; Hoechst staining): 16-18 hours; degradation of PARP (85-kDa band) (PARP): marked degradation of PARP; reversal of antiproliferative effect by exogenous PGE2 or LTB4 (HCA-7 cells [2]; 150 μM licofelone, 48 hours, exogenous PGE2 and LTB4 added): neither PGE2 or LTB4 administration was able to reverse the antiproliferative effect; IC50 (HCA-7 cells [2]; Homo sapiens, HCA-7, after 24 hours of treatment): 125 ± 6.25 µM; IC50 (HCA-7 cells [2]; Homo sapiens, HCA-7, after 48 hours of treatment): 72 ± 3.6 µM; inhibition at 150 µM (HCA-7 cells [2]; Homo sapiens, HCA-7, licofelone 150 μM, read-out: inhibition of HCA-7 growth): ~90%; accumulation of sub-G1 phase cells, maximum (HCA-7 cells [3]): 85%; plasma ML3000 concentration maintained ([4]; dose 2.5 mg/kg): above 100 ng/mL; plasma ML3000 concentration maintained ([4]; dose 5 mg/kg): > 200 ng/mL; inhibition of PGE2 production [5]: strongly inhibited PGE2 production; cleavage of 34-kDa pro-enzyme caspase-3 to active 17-kDa form (caspase-3): strong and time-dependent cleavage; reduction of LTB4 levels with respect to untreated cells [6]: 85%
